By Ki is commonly meant a measure of affinity in units of concentration, obtained from inhibition or displacement. High values mean lower affinity, low ones higher affinity.

This is an account of results in patent US9073855B2, “BCL-2 selective apoptosis-inducing agents for the treatment of cancer and immune diseases” (AbbVie Inc., priority 2008, dated 2015).

One assay deals with GST-Bcl-2 (Homo sapiens, UniProt P10415). Kind of assay: TR-FRET binding assay, GST-Bcl-2 with F-Bak peptide probe. The conditions noted are these: for Ki: TR-FRET Binding Affinity, GST-Bcl-2, F-Bak peptide probe; for Binding selectivity ratio (Bcl-XL Ki/Bcl-2 Ki): ratio of TR-FRET Ki values, Bcl-XL over Bcl-2. The gist of the method:
(§1)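 Ki was derived with Wang's equation for competitive binding of two ligands. The read-out was time-resolved fluorescence after a 3 h room-temperature incubation, using a Tb-labelled antibody donor and the F-Bak peptide acceptor (excitation 340/35 nm). Test compounds entered as DMSO serial dilutions starting at 50 μM, which was the 2× concentration.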
A general note: TR-FRET usually uses a lanthanide donor and a delayed reading to cut background.

Another assay has as its target GST-Bcl-XL (Homo sapiens, UniProt Q07817). Briefly: TR-FRET binding assay, GST-Bcl-XL with F-Bak peptide probe. The conditions noted are these: TR-FRET Binding Affinity, GST-Bcl-XL, F-Bak peptide probe. The gist of the method:
as §1

Bounds are passed on as bounds.

GST-Bcl-2, sequence (P10415 whole entry): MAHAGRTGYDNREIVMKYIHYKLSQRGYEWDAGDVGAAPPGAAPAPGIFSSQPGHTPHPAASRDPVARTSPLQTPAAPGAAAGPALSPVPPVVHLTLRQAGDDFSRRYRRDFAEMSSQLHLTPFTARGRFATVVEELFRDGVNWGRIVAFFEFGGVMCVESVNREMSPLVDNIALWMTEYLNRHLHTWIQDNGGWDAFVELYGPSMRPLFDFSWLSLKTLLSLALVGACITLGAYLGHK
GST-Bcl-XL, sequence (Q07817 whole entry): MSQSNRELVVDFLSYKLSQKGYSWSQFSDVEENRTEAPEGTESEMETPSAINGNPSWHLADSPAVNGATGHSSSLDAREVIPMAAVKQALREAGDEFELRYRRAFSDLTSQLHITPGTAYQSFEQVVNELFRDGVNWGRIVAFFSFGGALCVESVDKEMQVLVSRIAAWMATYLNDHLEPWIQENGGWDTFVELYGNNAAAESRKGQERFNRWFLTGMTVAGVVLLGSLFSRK

On to `O=C(NS(=O)(=O)c1ccc(NCCn2ccnn2)c([N+](=O)[O-])c1)c1ccc(N2CCN(Cc3ccccc3-c3ccc(Cl)cc3)CC2)cc1Oc1ccccc1` [Example 164, 4-{4-[(4′-chloro-1,1′-biphenyl-2-yl)methyl]piperazin-1-yl}-N-[(3-nitro-4-{[2-(1H-1,2,3-triazol-1-yl)ethyl]amino}phenyl)sulfonyl]-2-phenoxybenzamide], for which the figures for the Ki at GST-Bcl-2 and on GST-Bcl-XL were 0.963 nM and 138 nM, respectively.
Regarding `O=C(NS(=O)(=O)c1ccc(NCCn2nccn2)c([N+](=O)[O-])c1)c1ccc(N2CCN(Cc3ccccc3-c3ccc(Cl)cc3)CC2)cc1Oc1ccccc1` [Example 165, 4-{4-[(4′-chloro-1,1′-biphenyl-2-yl)methyl]piperazin-1-yl}-N-[(3-nitro-4-{[2-(2H-1,2,3-triazol-2-yl)ethyl]amino}phenyl)sulfonyl]-2-phenoxybenzamide], the Ki on GST-Bcl-2 was 0.823 nM; on GST-Bcl-XL it was 36.6 nM.
Take `O=C(NS(=O)(=O)c1ccc(NCCc2ccncc2)c([N+](=O)[O-])c1)c1ccc(N2CCN(Cc3ccccc3-c3ccc(Cl)cc3)CC2)cc1Oc1ccccc1` [Example 169, 4-{4-[(4′-chloro-1,1′-biphenyl-2-yl)methyl]piperazin-1-yl}-N-({3-nitro-4-[(2-pyridin-4-ylethyl)amino]phenyl}sulfonyl)-2-phenoxybenzamide]: the Ki is 0.97 nM on GST-Bcl-2 and 88.6 nM at GST-Bcl-XL.
With `O=C(NS(=O)(=O)c1ccc(NCC2CCOCC2)c([N+](=O)[O-])c1)c1ccc(N2CCN(Cc3cc(N4CCOCC4)ccc3-c3ccc(Cl)cc3)CC2)cc1Oc1cccc2[nH]ccc12` [Example 198, 4-{4-[(4′-chloro-4-morpholin-4-yl-1,1′-biphenyl-2-yl)methyl]piperazin-1-yl}-2-(1H-indol-4-yloxy)-N-({3-nitro-4-[(tetrahydro-2H-pyran-4-ylmethyl)amino]phenyl}sulfonyl)benzamide], the values for the Ki at GST-Bcl-2 and on GST-Bcl-XL were 3.97 nM and > 660 nM, respectively.
As to `CC1(C)CCC(CN2CCN(c3ccc(C(=O)NS(=O)(=O)c4ccc(NN5CCN(CCO)CC5)c([N+](=O)[O-])c4)c(Oc4ccc5[nH]ccc5c4)c3)CC2)=C(c2ccc(Cl)cc2)C1` [Example 233, 4-(4-{[2-(4-chlorophenyl)-4,4-dimethylcyclohex-1-en-1-yl]methyl}piperazin-1-yl)-N-[(4-{[4-(2-hydroxyethyl)piperazin-1-yl]amino}-3-nitrophenyl)sulfonyl]-2-(1H-indol-5-yloxy)benzamide], the Ki on GST-Bcl-2 was 0.243 nM; on GST-Bcl-XL, > 660 nM.
Turning to `CN1CC[C@H](Nc2ccc(S(=O)(=O)NC(=O)c3ccc(N4CCN(CC5=C(c6ccc(Cl)cc6)CC(C)(C)CC5)CC4)cc3Oc3ccc4[nH]ccc4c3)cc2[N+](=O)[O-])C1` [Example 234, 4-(4-{[2-(4-chlorophenyl)-4,4-dimethylcyclohex-1-en-1-yl]methyl}piperazin-1-yl)-2-(1H-indol-5-yloxy)-N-[(4-{[(3S)-1-methylpyrrolidin-3-yl]amino}-3-nitrophenyl)sulfonyl]benzamide], the results for the Ki on GST-Bcl-2 and on GST-Bcl-XL were 0.369 nM and 24.5 nM, respectively.
In the case of `CC1(C)CCC(CN2CCN(c3ccc(C(=O)NS(=O)(=O)c4ccc(NC5CCN(CCCF)CC5)c([N+](=O)[O-])c4)c(Oc4ccc5[nH]ccc5c4)c3)CC2)=C(c2ccc(Cl)cc2)C1` [Example 235, 4-(4-{[2-(4-chlorophenyl)-4,4-dimethylcyclohex-1-en-1-yl]methyl}piperazin-1-yl)-N-[(4-{[1-(3-fluoropropyl)piperidin-4-yl]amino}-3-nitrophenyl)sulfonyl]-2-(1H-indol-5-yloxy)benzamide], the Ki on GST-Bcl-2 turned out to be 0.252 nM; on GST-Bcl-XL it was 58.2 nM.
For `CC1(C)CCC(CN2CCN(c3ccc(C(=O)NS(=O)(=O)c4ccc(NCC5CCOCC5)c([N+](=O)[O-])c4)c(Oc4ccc5[nH]ccc5c4)c3)CC2CO)=C(c2ccc(Cl)cc2)C1` (stereo not shown) [Example 236, 4-[4-{[2-(4-chlorophenyl)-4,4-dimethylcyclohex-1-en-1-yl]methyl}-3-(hydroxymethyl)piperazin-1-yl]-2-(1H-indol-5-yloxy)-N-({3-nitro-4-[(tetrahydro-2H-pyran-4-ylmethyl)amino]phenyl}sulfonyl)benzamide], the Ki at GST-Bcl-2 is 0.369 nM; on GST-Bcl-XL it was > 660 nM.
For the compound `CC1(C)CCC(CN2CCN(c3ccc(C(=O)NS(=O)(=O)c4ccc(NCC5(N)CCOCC5)c([N+](=O)[O-])c4)c(Oc4ccc5[nH]ccc5c4)c3)CC2CO)=C(c2ccc(Cl)cc2)C1` (stereo not shown) [Example 237, N-[(4-{[(4-aminotetrahydro-2H-pyran-4-yl)methyl]amino}-3-nitrophenyl)sulfonyl]-4-[4-{[2-(4-chlorophenyl)-4,4-dimethylcyclohex-1-en-1-yl]methyl}-3-(hydroxymethyl)piperazin-1-yl]-2-(1H-indol-5-yloxy)benzamide], the values for the Ki on GST-Bcl-2 and on GST-Bcl-XL were 0.401 nM and 268 nM, respectively.
The like results for `CC1(C)CCC(CN2CCN(c3ccc(C(=O)NS(=O)(=O)c4ccc(NC5(CO)CCOCC5)c([N+](=O)[O-])c4)c(Oc4cccc5[nH]ccc45)c3)CC2)=C(c2ccc(Cl)cc2)C1` [Example 241, 4-(4-{[2-(4-chlorophenyl)-4,4-dimethylcyclohex-1-en-1-yl]methyl}piperazin-1-yl)-N-[(4-{[4-(hydroxymethyl)tetrahydro-2H-pyran-4-yl]amino}-3-nitrophenyl)sulfonyl]-2-(1H-indol-4-yloxy)benzamide] were, in that order, 6.09 nM and > 660 nM.
In the case of `CC1(C)CCC(CN2CCN(c3ccc(C(=O)NS(=O)(=O)c4cnc(OCCN5CCOCC5)c(C#N)c4)c(Oc4cccc5[nH]ccc45)c3)CC2)=C(c2ccc(Cl)cc2)C1` [Example 392, 4-(4-{[2-(4-chlorophenyl)-4,4-dimethylcyclohex-1-en-1-yl]methyl}piperazin-1-yl)-N-{[5-cyano-6-(2-morpholin-4-ylethoxy)pyridin-3-yl]sulfonyl}-2-(1H-indol-4-yloxy)benzamide], at GST-Bcl-2, the Ki came to 0.38 nM and the “Binding selectivity ratio (Bcl-XL Ki/Bcl-2 Ki)” value (shortened to “Binding selectivity ratio”) is 320.2. The compound also returned a Ki on GST-Bcl-XL of 122 nM.
The like results for `CC1(C)CCC(CN2CCN(c3ccc(C(=O)NS(=O)(=O)c4cnc(OCC5(F)CCOCC5)c(C#N)c4)c(Oc4cccc5[nH]ccc45)c3)CC2)=C(c2ccc(Cl)cc2)C1` [Example 393, 4-(4-{[2-(4-chlorophenyl)-4,4-dimethylcyclohex-1-en-1-yl]methyl}piperazin-1-yl)-N-({5-cyano-6-[(4-fluorotetrahydro-2H-pyran-4-yl)methoxy]pyridin-3-yl}sulfonyl)-2-(1H-indol-4-yloxy)benzamide] were, in that order, 0.083 nM, 1109.6 and 92.1 nM.
As to `COc1ccc(Nc2ccc(S(=O)(=O)NC(=O)c3ccc(N4CCN(CC5=C(c6ccc(Cl)cc6)CC(C)(C)CC5)CC4)cc3Oc3ccc4[nH]ccc4c3)cc2[N+](=O)[O-])cc1O` [Example 394, 4-(4-{[2-(4-chlorophenyl)-4,4-dimethylcyclohex-1-en-1-yl]methyl}piperazin-1-yl)-N-({4-[(3-hydroxy-4-methoxyphenyl)amino]-3-nitrophenyl}sulfonyl)-2-(1H-indol-5-yloxy)benzamide], the Ki on GST-Bcl-2 was 2.51 nM; on GST-Bcl-XL, > 660000 nM. Also, the “Binding selectivity ratio” value on GST-Bcl-2 is reported as >263262.9.
`CN1CCC(Nc2ccc(S(=O)(=O)NC(=O)c3ccc(N4CCN(CC5=C(c6ccc(Cl)cc6)CC(C)(C)CC5)CC4)cc3Oc3cccc4c3CCN4)cc2[N+](=O)[O-])CC1` [Example 395, 4-(4-{[2-(4-chlorophenyl)-4,4-dimethylcyclohex-1-en-1-yl]methyl}piperazin-1-yl)-2-(2,3-dihydro-1H-indol-4-yloxy)-N-({4-[(1-methylpiperidin-4-yl)amino]-3-nitrophenyl}sulfonyl)benzamide]: the Ki was found to be 0.798 nM on GST-Bcl-2 and 18.8 nM on GST-Bcl-XL. In addition, at GST-Bcl-2, the “Binding selectivity ratio” value was determined as 23.6.
For `CC1(C)CCC(CN2CCN(c3ccc(C(=O)NS(=O)(=O)c4ccc(NC5CCN(C6CCOCC6)CC5)c([N+](=O)[O-])c4)c(Nc4cccnc4)c3)CC2)=C(c2ccc(Cl)cc2)C1` [Example 397, 4-(4-{[2-(4-chlorophenyl)-4,4-dimethylcyclohex-1-en-1-yl]methyl}piperazin-1-yl)-N-({3-nitro-4-[(1-tetrahydro-2H-pyran-4-ylpiperidin-4-yl)amino]phenyl}sulfonyl)-2-(pyridin-3-ylamino)benzamide] the same measures were 23 nM, > 660000 nM and >28730.6.
`CC1(C)CCC(CN2CCN(c3ccc(C(=O)NS(=O)(=O)c4cnc(NCC5(F)CCOCC5)c(Cl)c4)c(Oc4cccc5[nH]ncc45)c3)CC2)=C(c2ccc(Cl)cc2)C1` [Example 413, N-[(5-chloro-6-{[(4-fluorotetrahydro-2H-pyran-4-yl)methyl]amino}pyridin-3-yl)sulfonyl]-4-(4-{[2-(4-chlorophenyl)-4,4-dimethylcyclohex-1-en-1-yl]methyl}piperazin-1-yl)-2-(1H-indazol-4-yloxy)benzamide]: the results for the Ki at GST-Bcl-2 and at GST-Bcl-XL were 0.12 nM and 96.8 nM, respectively. Moreover, on GST-Bcl-2, the “Binding selectivity ratio” value is 803.8.
As to `CO[C@H]1CC[C@H](COc2ncc(S(=O)(=O)NC(=O)c3ccc(N4CCN(CC5=C(c6ccc(Cl)cc6)CC(C)(C)CC5)CC4)cc3Oc3cccc4[nH]ncc34)cc2Cl)CC1` [Example 414, Trans-N-({5-chloro-6-[(4-methoxycyclohexyl)methoxy]pyridin-3-yl}sulfonyl)-4-(4-{[2-(4-chlorophenyl)-4,4-dimethylcyclohex-1-en-1-yl]methyl}piperazin-1-yl)-2-(1H-indazol-4-yloxy)benzamide], the Ki turned out to be 0.007 nM on GST-Bcl-2 and 95.6 nM at GST-Bcl-XL.
